Data as given in patent publication US8541461B2 (Astex Therapeutics Limited, priority 2005, dated 2013).

Target: T1, PKB-PIF fusion protein (protein kinase B) (Homo sapiens, UniProt P31751)
T1 construct: PIF (fusion partner); made in house
Assay: Measurement of PKB kinase inhibitory activity (IC50)
Assay type: biochemical
Conditions: 0.6 nM enzyme, 30 μM ATP/γ33P-ATP, 25 μM AKTide-2T substrate; read-out: PKB IC50
Protocol: The reaction is allowed to proceed for 20 minutes before addition of excess orthophosphoric acid to quench activity. The reaction mixture is transferred to a phosphocellulose filter plate where the peptide binds and the unused ATP is washed away. After washing, scintillant is added and the incorporated activity measured by scintillation counting.

T1 sequence (P31751 with tags, fused parts or gaps limits assumed): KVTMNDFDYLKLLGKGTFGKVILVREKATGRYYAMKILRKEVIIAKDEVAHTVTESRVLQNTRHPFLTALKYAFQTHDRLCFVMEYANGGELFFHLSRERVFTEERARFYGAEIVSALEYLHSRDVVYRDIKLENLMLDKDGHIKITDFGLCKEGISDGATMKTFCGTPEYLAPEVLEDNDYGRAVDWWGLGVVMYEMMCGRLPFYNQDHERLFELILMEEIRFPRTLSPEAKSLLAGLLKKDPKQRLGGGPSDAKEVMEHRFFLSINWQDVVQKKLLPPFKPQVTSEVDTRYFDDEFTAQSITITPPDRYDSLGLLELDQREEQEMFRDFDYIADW

SMILES | IC50
N#CC(Cc1ccccc1)c1cccc(-c2cn[nH]c2)c1 (stereo not drawn) [Example 2, 3-Phenyl-2-[3-(1H-pyrazol-4-yl)-phenyl]-propionitrile] | < 5000 nM
Cc1n[nH]c(C)c1-c1ccc(C(CN)c2ccccc2)cc1 (stereo not drawn) [Example 3, 2-[4-(3,5-Dimethyl-1H-pyrazol-4-yl)-phenyl]-2-phenyl-ethylamine] | < 5000 nM
NCC(Cc1ccccc1)c1cccc(-c2cn[nH]c2)c1 (stereo not drawn) [Example 6, 3-Phenyl-2-[3-(1H-pyrazol-4-yl)-phenyl]-propylamine] | < 5000 nM
NC(=O)CC(c1ccc(Cl)cc1)c1ccc(-c2cn[nH]c2)cc1 (stereo not drawn) [Example 11, 3-(4-Chloro-phenyl)-3-[4-(1H-pyrazol-4-yl)-phenyl]-propionamide] | < 5000 nM
CN1CCC(c2ccc(Cl)cc2)(c2ccc(-c3cn[nH]c3)cc2)CC1 [Example 16, 4-(4-Chloro-phenyl)-1-methyl-4-[4-(1H-pyrazol-4-yl)-phenyl]-piperidine] | < 1000 nM
Cc1n[nH]c(C)c1-c1ccc(C2(c3ccccc3)CCNCC2)cc1 [Example 18, 4-[4-(3,5-Dimethyl-1H-pyrazol-4-yl)-phenyl]-4-phenyl-piperidine] | < 5000 nM
CN(C)CCC(c1ccc(-c2cn[nH]c2)cc1)c1ccccn1 (stereo not drawn) [Example 19, Dimethyl-{3-[4-(1H-pyrazol-4-yl)-phenyl]-3-pyridin-2-yl-propyl}-amine] | < 5000 nM
Clc1ccc(C(CN2CCOCC2)c2ccc(-c3cn[nH]c3)cc2)cc1 (stereo not drawn) [Example 24, 4-{2-(4-Chloro-phenyl)-2-[4-(1H-pyrazol-4-yl)-phenyl]-ethyl}-morpholine] | < 5000 nM
NC(=O)C(c1ccc(Cl)cc1)c1ccc(-c2cn[nH]c2)cc1 (stereo not drawn) [Example 32, 2-(4-Chloro-phenyl)-2-[4-(1H-pyrazol-4-yl)-phenyl]-acetamide] | < 5000 nM
NC(Cc1ccc(-c2cn[nH]c2)cc1)c1ccccc1 (stereo not drawn) [Example 36, 1-Phenyl-2-[4-(1H-pyrazol-4-yl)-phenyl]-ethylamine] | < 5000 nM
CNC(=O)C(c1ccc(Cl)cc1)c1ccc(-c2cn[nH]c2)cc1 (stereo not drawn) [Example 40, 2-(4-Chloro-phenyl)-N-methyl-2-[4-(1H-pyrazol-4-yl)-phenyl]-acetamide] | < 50000 nM
CNC(=O)C(c1ccc(-c2cn[nH]c2)cc1)c1ccc(-c2cn[nH]c2)cc1 [Example 41, N-Methyl-2,2-bis-[4-(1H-pyrazol-4-yl)-phenyl]-acetamide] | < 50000 nM
CNCCC(c1ccc(-c2cn[nH]c2)cc1)c1ccc(N(C)C)cc1 (stereo not drawn) [Example 53, Dimethyl-(4-{3-methylamino-1-[4-(1H-pyrazol-4-yl)-phenyl]-propyl}-phenyl)-amine] | < 5000 nM
N#Cc1n[nH]cc1-c1ccc(C2(c3ccc(Cl)cc3)CCNCC2)cc1 [Example 55, 4-{4-[4-(4-Chloro-phenyl)-piperidin-4-yl]-phenyl}-1H-pyrazole-3-carbonitrile] | < 5000 nM
CN1CCCN(C(c2ccccc2)c2ccc(-c3cn[nH]c3)cc2)CC1 (stereo not drawn) [Example 58, 1-Methyl-4-{phenyl-[4-(1H-pyrazol-4-yl)-phenyl]-methyl}-[1,4]diazepane] | < 5000 nM
Clc1ccc(C(CCn2ccnc2)c2ccc(-c3cn[nH]c3)cc2)cc1 (stereo not drawn) [Example 61, 4-{4-[1-(4-Chloro-phenyl)-3-imidazol-1-yl-propyl]-phenyl}-1H-pyrazole] | < 1000 nM
c1ccc(OC(CCn2ccnc2)c2ccc(-c3cn[nH]c3)cc2)cc1 (stereo not drawn) [Example 62, 4-[4-(3-Imidazol-1-yl-1-phenoxy-propyl)-phenyl]-1H-pyrazole] | < 50000 nM
c1ccc(C(c2ccc(-c3cn[nH]c3)cc2)N2CCNCC2)cc1 (stereo not drawn) [Example 64] | < 5000 nM
CNCC(c1ccc(F)cc1)c1ccc(-c2cn[nH]c2)cc1 (stereo not drawn) [Example 65, {2-(4-Fluoro-phenyl)-2-[4-(1H-pyrazol-4-yl)-phenyl]-ethyl}-methyl-amine] | < 1000 nM
COCCCOc1ccc(C2(c3ccc(-c4cn[nH]c4)cc3)CCNCC2)cc1 [Example 68, 4-[4-(3-Methoxy-propoxy)-phenyl]-4-[4-(1H-pyrazol-4-yl)-phenyl]-piperidine] | < 5000 nM
NC(=O)CC(c1ccc(-c2cn[nH]c2)cc1)c1ccc(Cl)c(Cl)c1 (stereo not drawn) [Example 69, 3-(3,4-Dichloro-phenyl)-3-[4-(1H-pyrazol-4-yl)-phenyl]-propionamide] | < 1000 nM
CNCC(c1ccc(Oc2cc(C(N)=O)ccn2)cc1)c1ccc(-c2cn[nH]c2)cc1 (stereo not drawn) [Example 70, 2-(4-{2-Methylamino-1-[4-(1H-pyrazol-4-yl)-phenyl]-ethyl}-phenoxy)-isonicotinamide] | < 50000 nM
CNCC(Oc1ccc(Cl)cc1)c1ccc(-c2cn[nH]c2)cc1 (stereo not drawn) [Example 71, {2-(4-Chloro-phenoxy)-2-[4-(1H-pyrazol-4-yl)-phenyl]-ethyl}-methyl-amine] | < 1000 nM
OCCCNCC(c1ccc(Cl)cc1)c1ccc(-c2cn[nH]c2)cc1 (stereo not drawn) [Example 72] | < 1000 nM
CNCC(c1ccc(-c2cccnc2)cc1)c1ccc(-c2cn[nH]c2)cc1 (stereo not drawn) [Example 75, Methyl-[2-[4-(1H-pyrazol-4-yl)-phenyl]-2-(4-pyridin-3-yl-phenyl)-ethyl]-amine] | < 5000 nM

Other lines, results leading:

IC50 | SMILES
< 1000 nM | CNCC(c1ccc(Cl)cc1)c1ccc(-c2cn[nH]c2)cc1 (stereo in doubt) [Example 22, {2-(4-Chloro-phenyl)-2-[4-(1H-pyrazol-4-yl)-phenyl]-ethyl}-methyl-amine (R)]
< 1000 nM | CNCCC(c1ccc(Cl)cc1)c1ccc(-c2cn[nH]c2)cc1 (stereo not drawn) [Example 8, {3-(4-Chloro-phenyl)-3-[4-(1H-pyrazol-4-yl)-phenyl]-propyl}-methyl-amine]
< 1000 nM | CNCCC(c1ccc(-c2cn[nH]c2)cc1)c1ccc(F)c(F)c1 (stereo not drawn) [Example 9, {3-(3,4-Difluoro-phenyl)-3-[4-(1H-pyrazol-4-yl)-phenyl]-propyl}-methyl-amine]
< 1000 nM | CNCCC(c1ccc(-c2cn[nH]c2)cc1)c1cccc(Cl)c1 (stereo not drawn) [Example 10, {3-(3-Chloro-phenyl)-3-[4-(1H-pyrazol-4-yl)-phenyl]-propyl}-methyl-amine]
< 1000 nM | NCCC(c1ccc(Cl)cc1)c1ccc(-c2cn[nH]c2)cc1 (stereo not drawn) [Example 12, 3-(4-Chloro-phenyl)-3-[4-(1H-pyrazol-4-yl)-phenyl]-propylamine]
< 1000 nM | NCCC(c1ccc(-c2cn[nH]c2)cc1)c1ccc(Cl)c(Cl)c1 (stereo not drawn) [Example 13, 3-(3,4-Dichloro-phenyl)-3-[4-(1H-pyrazol-4-yl)-phenyl]-propylamine]
< 1000 nM | Clc1ccc(C2(c3ccc(-c4cn[nH]c4)cc3)CCNCC2)cc1 [Example 14, 4-(4-Chloro-phenyl)-4-[4-(1H-pyrazol-4-yl)-phenyl]-piperidine]
< 1000 nM | COc1ccc(C2(c3ccc(-c4cn[nH]c4)cc3)CCNCC2)cc1 [Example 15, 4-(4-Methoxy-phenyl)-4-[4-(1H-pyrazol-4-yl)-phenyl]-piperidine]
< 1000 nM | c1ccc(C2(c3ccc(-c4cn[nH]c4)cc3)CCNCC2)cc1 [Example 17, 4-Phenyl-4-[4-(1H-pyrazol-4-yl)-phenyl]-piperidine]
< 1000 nM | CN(C)CC(c1ccc(Cl)cc1)c1ccc(-c2cn[nH]c2)cc1 (stereo not drawn) [Example 20, {2-(4-Chloro-phenyl)-2-[4-(1H-pyrazol-4-yl)-phenyl]-ethyl}-dimethyl-amine]
< 1000 nM | CNCC(c1ccc(Cl)cc1)c1ccc(-c2cn[nH]c2)cc1 (stereo not drawn) [Example 21, {2-(4-Chloro-phenyl)-2-[4-(1H-pyrazol-4-yl)-phenyl]-ethyl}-methyl-amine]
< 1000 nM | Clc1ccc(C(CN2CCCC2)c2ccc(-c3cn[nH]c3)cc2)cc1 (stereo not drawn) [Example 25, 4-{4-[1-(4-Chloro-phenyl)-2-pyrrolidin-1-yl-ethyl]-phenyl}-1H-pyrazole]
< 1000 nM | CC(C)NCC(c1ccc(Cl)cc1)c1ccc(-c2cn[nH]c2)cc1 (stereo not drawn) [Example 26, {2-(4-Chloro-phenyl)-2-[4-(1H-pyrazol-4-yl)-phenyl]-ethyl}-isopropyl-amine]
< 1000 nM | CN(C)CC(c1ccccc1)c1ccc(-c2cn[nH]c2)cc1 (stereo not drawn) [Example 27, Dimethyl-{2-phenyl-2-[4-(1H-pyrazol-4-yl)-phenyl]-ethyl}-amine]
< 1000 nM | CN(C)CC(c1ccc(-c2cn[nH]c2)cc1)c1ccc(-c2cn[nH]c2)cc1 [Example 28, {2,2-Bis-[4-(1H-pyrazol-4-yl)-phenyl]-ethyl}-dimethyl-amine]
< 1000 nM | CNCC(c1ccc(-c2cn[nH]c2)cc1)c1ccc(-c2cn[nH]c2)cc1 [Example 29, {2,2-Bis-[4-(1H-pyrazol-4-yl)-phenyl]-ethyl}-methyl-amine]
< 1000 nM | Clc1ccc(C(CN2CCNCC2)c2ccc(-c3cn[nH]c3)cc2)cc1 (stereo not drawn) [Example 33, 1-{2-(4-Chloro-phenyl)-2-[4-(1H-pyrazol-4-yl)-phenyl]-ethyl}-piperazine]
< 1000 nM | Clc1ccc(C(CN2CCCCC2)c2ccc(-c3cn[nH]c3)cc2)cc1 (stereo not drawn) [Example 34, 1-{2-(4-Chloro-phenyl)-2-[4-(1H-pyrazol-4-yl)-phenyl]-ethyl}-piperidine]
< 1000 nM | Clc1ccc(C(CN2CCC2)c2ccc(-c3cn[nH]c3)cc2)cc1 (stereo not drawn) [Example 35, 4-{4-[2-Azetidin-1-yl-1-(4-chloro-phenyl)-ethyl]-phenyl}-1H-pyrazole]
< 1000 nM | Clc1ccc(C(CCN2CCCC2)c2ccc(-c3cn[nH]c3)cc2)cc1 (stereo not drawn) [Example 50, 4-{4-[1-(4-Chloro-phenyl)-3-pyrrolidin-1-yl-propyl]-phenyl}-1H-pyrazole]
< 1000 nM | Clc1ccc(C(CCN2CCC2)c2ccc(-c3cn[nH]c3)cc2)cc1 (stereo not drawn) [Example 51, 4-{4-[3-Azetidin-1-yl-1-(4-chloro-phenyl)-propyl]-phenyl}-1H-pyrazole]
< 1000 nM | NCCC(c1ccc(Oc2ccccc2)cc1)c1ccc(-c2cn[nH]c2)cc1 (stereo not drawn) [Example 56, 3-(4-Phenoxy-phenyl)-3-[4-(1H-pyrazol-4-yl)-phenyl]-propylamine]
< 1000 nM | Clc1ccc(C(c2ccc(-c3cn[nH]c3)cc2)N2CCNCC2)cc1 (stereo not drawn) [Example 57, 1-{(4-Chloro-phenyl)-[4-(1H-pyrazol-4-yl)-phenyl]-methyl}-piperazine]
